Measurements published in patent publication US20230346670A1, “Prebiotic Oral Care Compositions and Methods” (Colgate-Palmolive Company, priority 2020, published 2023).
Marks after values point to notes of the source that are not given here.

Legend:
Type in all cases: cell-based
A. viscosus = assay: Multi-species biofilm composition, absolute abundance (Geq/mL); conditions: repeated rinsing
Description: (§1) Biofilms are grown vertically on Calcium Deficient Hydroxyapatite (CAD-HA) disks (Hitemco Medical, Old Bethpage, USA) using the Amsterdam Active Adhesion model. Biofilms are allowed to establish during 24 h (37° C., 170 rpm) under microaerophilic conditions (6% O2, 7% CO2, 7% H2, 80% N2). After this 24 h, disks are rinsed 3 times a day for 3 minutes (RT, 250 rpm), for 3 consecutive days, by transferring the lid containing the disks to a new 24-well plate containing 2 mL/well of the appropriate substrate solution. As a negative control, PBS (pH 5.7) without substrate supplementation is used.
(§2) N-acetyl-D-glucosamine (NADG), α-D-lactose, D-(+)-trehalose and D-(+)-raffinose are selected to determine their effects on multi-species biofilm composition. […] decrease in absolute numbers in at least four of the pathogenic bacterial species tested in the assay, in comparison to the control, the results of which are described in Table 1 below. Note, NADG decreased absolute numbers of S. sobrinus. Absolute abundances of bacterial species are shown as mean ± SD (n = 3) logarithmic values of the genome equivalents per millilitre (log(Geq/mL)).

F. nucleatum = assay: as above; conditions: repeated rinsing
Description: as §1, §2

S. mutans = assay: as above; conditions: repeated rinsing
Description: as §1, §2

S. salivarius = assay: as above; conditions: repeated rinsing
Description: as §1, §2

S. sanguinis = assay: as above; conditions: repeated rinsing
Description: as §1, §2

V. parvula = assay: as above; conditions: for absolute abundance of V. parvula (VP), mean ± SD log (Geq/mL): repeated rinsing
Description: as §1, §2

multi-species biofilms = assay: Organic acid levels in supernatant of multi-species biofilms (ion chromatography); conditions: >0 production, <0 consumption, n = 3
Description: as §1
Levels of organic acids in the filter sterilized supernatant of the multi-species biofilms are measured using a 761 Compact Ion Chromatograph (Metrhohm, Switzerland) with a Metrosep Organic acids Guard/4.6 guard column. The supernatants from the substrate-treated multi-species biofilms are analyzed to gain more insight into the influence of the substrates on organic acid consumption/production.

[1] = test system: A. actinomycetemcomitans virulence genes; assay: Virulence gene expression in multi-species biofilm (SYBR RT-qPCR)
Description: as §1
(§3) The virulence of the substrate-treated multi-species biofilms are evaluated by analyzing the relative expression of 33 genes that are recognized as being related to some form of virulence and from 4 periodontal pathogens.
(§4) Expression of bacterial virulence genes is analyzed through SYBR RT-qPCR and normalized for bacterial housekeeping gene expression. […] These effects are illustrated in Tables 6a and 6b:
(§5) Note, for Tables 6a and 6b, that fold changes in virulence gene expression are determined relative to the control condition through the 2^^-ΔΔCt method and are shown as the geometric mean (C.I.) (n = 3) of the 2^^-ΔΔ ^Ct values. All substrates are dissolved in PBS at a concentration of 1 M (upper part) or 1%(w/v) (lower part). Values between 0 and 1 represent relative downregulation, values >1 represent relative upregulation. […] NADG: N-acetyl-D-glucosamine; C.I.: 95% confidence interval.

[2] = test system: P. gingivalis virulence genes; assay: as above; conditions: relative to control, 2^-ΔΔCt, n = 3
Description: as §1, §3, §4, §5

[3] = test system: F. nucleatum virulence genes; assay: as above; conditions: relative to control = 1, 2^-ΔΔCt, n = 3
Description: as §1, §3, §4
as §5, with “Table 6c,” for “Tables 6a and 6b, that”, “2^^-ΔΔCt” for “2^^-ΔΔ ^Ct”

[4] = substrate 1 M, listed as α-D-lactose
[5] = lower part of Table 6a, substrate 1%(w/v), relative to control = 1
[6] = substrate 1 M, relative to control = 1, 2^-ΔΔCt, n = 3

OC[C@H]1O[C@@H](O[C@H]2[C@H](O)[C@@H](O)[C@@H](O)O[C@@H]2CO)[C@H](O)[C@@H](O)[C@H]1O [D-lactose, α-D-lactose]
absolute abundance of A. viscosus (Av), mean ± SD log (Geq/mL) (A. viscosus; substrate 1% (w/v)): 7.89 ± 0.13 log (Geq/mL)
absolute abundance of A. viscosus (Av), mean ± SD log (Geq/mL) (A. viscosus; substrate 1 M in PBS, n = 3): 6.78 ± 0.41 log (Geq/mL)
absolute abundance of F. nucleatum (Fn), mean ± SD log (Geq/mL) (F. nucleatum; substrate 1% (w/v)): 9.39 ± 0.42 log (Geq/mL)
absolute abundance of F. nucleatum (Fn), mean ± SD log (Geq/mL) (F. nucleatum; substrate 1 M in PBS, n = 3): 5.49 ± 0.46^∗ log (Geq/mL)
absolute abundance of S. mutans, mean ± SD log (Geq/mL) (S. mutans; substrate 1% (w/v)): 7.48 ± 0.14 log (Geq/mL)
absolute abundance of S. mutans, mean ± SD log (Geq/mL) (S. mutans; substrate 1 M in PBS, n = 3): 8.00 ± 0.56 log (Geq/mL)
absolute abundance of S. salivarius, mean ± SD log (Geq/mL) (S. salivarius; substrate 1% (w/v)): 2.65 ± 0.00 log (Geq/mL)
absolute abundance of S. salivarius, mean ± SD log (Geq/mL) (S. salivarius; substrate 1 M in PBS, n = 3): 6.95 ± 0.14^∗ log (Geq/mL)
absolute abundance of S. sanguinis, mean ± SD log (Geq/mL) (S. sanguinis; substrate 1% (w/v)): 8.99 ± 0.54 log (Geq/mL)
absolute abundance of S. sanguinis, mean ± SD log (Geq/mL) (S. sanguinis; substrate 1 M in PBS, n = 3): 5.80 ± 1.09 log (Geq/mL)
absolute abundance of V. parvula (VP), mean ± SD log (Geq/mL) (V. parvula; substrate 1% (w/v)): 9.92 ± 0.20 log (Geq/mL)
reduction of V. parvula numbers in comparison to the control (V. parvula; substrate 1 M): ~ 0.7 log(Geq/mL)
absolute abundance of V. parvula (VP), mean ± SD log (Geq/mL) (V. parvula; substrate 1 M in PBS, n = 3): 9.45 ± 0.15^∗ log (Geq/mL)
acetate level in biofilm supernatant, mean ± SD (multi-species biofilms; substrate 1% (w/v)): 367 ± 33 mg/L
butyrate level in biofilm supernatant, mean ± SD (multi-species biofilms; substrate 1% (w/v)): 2061 ± 121 mg/L
formate level in biofilm supernatant, mean ± SD (multi-species biofilms; substrate 1% (w/v)): 3929 ± 253 mg/L
lactate level in biofilm supernatant, mean ± SD (multi-species biofilms; substrate 1% (w/v)): -125 ± 0 mg/L
propionate level in biofilm supernatant, mean ± SD (multi-species biofilms; substrate 1% (w/v)): 2140 ± 141 mg/L
acetate level in biofilm supernatant, mean ± SD (multi-species biofilms; substrate 1 M): 881 ± 73^∗ mg/L
butyrate level in biofilm supernatant, mean ± SD (multi-species biofilms; substrate 1 M): 0±0^∗ mg/L
formate level in biofilm supernatant, mean ± SD (multi-species biofilms; substrate 1 M): 84 ± 9^∗ mg/L
lactate level in biofilm supernatant, mean ± SD (multi-species biofilms; substrate 1 M): 3791 ± 169^∗ mg/L
propionate level in biofilm supernatant, mean ± SD (multi-species biofilms; substrate 1 M): 1306 ± 175^∗ mg/L
acetate level in biofilm supernatant, mean ± SD (multi-species biofilms; [4]): 881 ± 73 mg/L
butyrate level in biofilm supernatant, mean ± SD (multi-species biofilms; [4]): 0 ± 0 mg/L
formate level in biofilm supernatant, mean ± SD (multi-species biofilms; [4]): 84 ± 9 mg/L
lactate level in biofilm supernatant, mean ± SD (multi-species biofilms; [4]): 3791 ± 169 mg/L
propionate level in biofilm supernatant, mean ± SD (multi-species biofilms; [4]): 1306 ± 175 mg/L
fold change in aae expression, geometric mean (95% C.I.) [1, 5]: 1.36 (0.70-2.67) fold
fold change in apaH expression, geometric mean (95% C.I.) [1, 5]: 0.84 (0.29-2.49) fold
fold change in cdtB expression, geometric mean (95% C.I.) [1, 5]: 0.66 (0.21-2.03) fold
fold change in emaA expression, geometric mean (95% C.I.) [1, 5]: 0.34 (0.25-0.45)^∗ fold
fold change in flp expression, geometric mean (95% C.I.) [1, 5]: 0.81 (0.08-7.83) fold
fold change in ltxA expression, geometric mean (95% C.I.) [1, 5]: 0.04 (0.02-0.08)^∗ fold
fold change in omp29 expression, geometric mean (95% C.I.) [1, 5]: 0.81 (0.73-0.89) fold
fold change in omp100 expression, geometric mean (95% C.I.) [1, 5]: 0.34 (0.23-0.49)^∗ fold
fold change in orf859 expression, geometric mean (95% C.I.) [1, 5]: 0.97 (0.37-2.54) fold
fold change in pgA expression, geometric mean (95% C.I.) [1, 5]: 0.55 (0.41-0.74) fold
fold change in vapA expression, geometric mean (95% C.I.) [1, 5]: 0.90 (0.60-1.35) fold
fold change in vppA expression, geometric mean (95% C.I.) [1, 5]: 0.40 (0.14-1.15)^∗ fold
fold change in aae expression, geometric mean (95% C.I.) [1, 6]: 0.03 (0.01-0.22)^∗ fold
fold change in apaH expression, geometric mean (95% C.I.) [1, 6]: 0.04 (0.01-0.21)^∗ fold
fold change in cdtB expression, geometric mean (95% C.I.) [1, 6]: 0.02 (0.00-0.21)^∗ fold
fold change in emaA expression, geometric mean (95% C.I.) [1, 6]: 0.08 (0.06-0.11)^∗ fold
fold change in flp expression, geometric mean (95% C.I.) [1, 6]: 0.44 (0.10-1.94) fold
fold change in ltxA expression, geometric mean (95% C.I.) [1, 6]: 0.01 (0.00-0.08)^∗ fold
fold change in omp29 expression, geometric mean (95% C.I.) [1, 6]: 0.42 (0.33-0.52)^∗ fold
fold change in omp100 expression, geometric mean (95% C.I.) [1, 6]: 0.08 (0.04-0.15)^∗ fold
fold change in orf859 expression, geometric mean (95% C.I.) [1, 6]: 0.05 (0.00-0.79)^∗ fold
fold change in pgA expression, geometric mean (95% C.I.) [1, 6]: 4.30 (2.21-8.37)^∗ fold
fold change in vapA expression, geometric mean (95% C.I.) [1, 6]: 0.22 (0.13-0.36)^∗ fold
fold change in vppA expression, geometric mean (95% C.I.) [1, 6]: 0.17 (0.06-0.43)^∗ fold
fold change in pgA expression, geometric mean (95% C.I.) ([1]; substrate 1 M, relative to control = 1, 2^-ΔΔCt, n = 3, listed as α-D-lactose): 4.3 fold
fold change in fimA expression, geometric mean (95% C.I.) ([2]; substrate 1 % (w/v)): 1.48 (0.27-8.02) fold
fold change in kgp expression, geometric mean (95% C.I.) ([2]; substrate 1 % (w/v)): 1.95 (0.45-8.59) fold
fold change in partC expression, geometric mean (95% C.I.) ([2]; substrate 1 % (w/v)): 0.47 (0.07-3.04) fold
fold change in rgpA expression, geometric mean (95% C.I.) ([2]; substrate 1 % (w/v)): 1.49 (0.70-3.20) fold
fold change in fimA expression, geometric mean (95% C.I.) ([2]; substrate 1 M): 0.06 (0.00-1.08)^∗ fold
fold change in kgp expression, geometric mean (95% C.I.) ([2]; substrate 1 M): <LOD
fold change in partC expression, geometric mean (95% C.I.) ([2]; substrate 1 M): 0.03 (0.01-0.17)^∗ fold
fold change in rgpA expression, geometric mean (95% C.I.) ([2]; substrate 1 M): 0.01 (0.00-4.60)^∗ fold
fold change in ABC transp. perm. (ABC transporter permease) expression, geometric mean (95% C.I.) ([3]; substrate 1% (w/v)): 0.25 (0.08-0.78)^∗ fold
fold change in EF-G expression, geometric mean (95% C.I.) ([3]; substrate 1% (w/v)): 0.13 (0.03-0.51)^∗ fold
fold change in but. -coA transf. (butyrate-acetoacetate CoA-transferase) expression, geometric mean (95% C.I.) ([3]; substrate 1% (w/v)): 0.57 (0.40-0.83) fold
fold change in hemin receptor expression, geometric mean (95% C.I.) ([3]; substrate 1% (w/v)): 0.17 (0.03-0.94)^∗ fold
fold change in hemolysin expression, geometric mean (95% C.I.) ([3]; substrate 1% (w/v)): 1.00 (0.60-1.68) fold
fold change in ompA expression, geometric mean (95% C.I.) ([3]; substrate 1% (w/v)): 1.13 (0.58-2.19) fold
fold change in transposase expression, geometric mean (95% C.I.) ([3]; substrate 1% (w/v)): 1.26 (0.51-3.13) fold
fold change in ABC transp. perm. (ABC transporter permease) expression, geometric mean (95% C.I.) ([3]; substrate 1 M): 16.97 (5.93-48.61)^∗ fold
fold change in EF-G expression, geometric mean (95% C.I.) ([3]; substrate 1 M): 1.54 (0.94-2.53) fold
fold change in but. -coA transf. (butyrate-acetoacetate CoA-transferase) expression, geometric mean (95% C.I.) ([3]; substrate 1 M): 3.88 (0.87-17.43)* fold
fold change in hemin receptor expression, geometric mean (95% C.I.) ([3]; substrate 1 M): 36.87 (17.27-78.74)^∗ fold
fold change in hemolysin expression, geometric mean (95% C.I.) ([3]; substrate 1 M): 6.34 (1.36-29.47)^∗ fold
fold change in ompA expression, geometric mean (95% C.I.) ([3]; substrate 1 M): 1.26 (0.79-2.03) fold
fold change in transposase expression, geometric mean (95% C.I.) ([3]; substrate 1 M): 172.87 (147.10-203.20)^∗ fold
